Test results taken from the NIST ThermoML archive (doi:10.1021/je1002829).

Assay: xn = mol fraction of the nth substance listed
Settings: for mass density: 101 kPa, Liquid, Pycnometric method

CCCC(=O)O [butanoic acid] + O
Settings | mass density, 293.15 K [kg/m3] | mass density, 298.15 K [kg/m3] | mass density, 303.15 K [kg/m3] | mass density, 308.15 K [kg/m3] | surface tension liquid-gas, 293.15 K [mN/m] | surface tension liquid-gas, 298.15 K [mN/m] | surface tension liquid-gas, 303.15 K [mN/m] | surface tension liquid-gas, 308.15 K [mN/m]
x1 = 0.00475 | – | – | – | – | 50.5 | 50.01 | 49.13 | 48.56
x1 = 0.00655 | – | – | – | – | 45.88 | 45.32 | 44.7 | 44.05
x1 = 0.00903 | – | – | – | – | 41.59 | 40.95 | 40.38 | 39.72
x1 = 0.00998 | – | – | – | – | 40.32 | 39.69 | 39.11 | 38.47
x1 = 0.01274 | – | – | – | – | 37.41 | 36.84 | 36.24 | 35.68
x1 = 0.01432 | – | – | – | – | 36.11 | 35.6 | 34.99 | 34.5
x1 = 0.01655 | 1002.55 | 1000.29 | 998.03 | 995.86 | 34.6 | 34.16 | 33.58 | 33.16
x1 = 0.02141 | 1003.38 | 1001.03 | 998.67 | 996.41 | – | – | – | –
x1 = 0.03346 | 1004.38 | 1001.93 | 999.47 | 997.11 | 29.28 | 28.91 | 28.59 | 28.45
x1 = 0.03727 | 1004.49 | 1001.94 | 999.38 | 996.93 | – | – | – | –
x1 = 0.04522 | 1004.3 | 1001.66 | 999.01 | 996.46 | 28.48 | 28.33 | 28.14 | 27.95
x1 = 0.04995 | 1004.13 | 1001.39 | 998.64 | 995.99 | – | – | – | –
x1 = 0.05825 | 1003.61 | 1000.77 | 997.92 | 995.18 | 28.46 | 28.38 | 28.1 | 27.87
x1 = 0.06959 | 1002.83 | 999.9 | 996.96 | 994.11 | – | – | – | –
x1 = 0.07723 | 1002.34 | 999.13 | 995.79 | 992.85 | – | – | – | –
x1 = 0.08723 | – | – | – | – | 28.61 | 28.3 | 27.92 | 27.72
x1 = 0.09004 | 1001.61 | 998.48 | 995.24 | 991.96 | – | – | – | –
x1 = 0.09948 | 1001.12 | 997.91 | 994.7 | 991.51 | 28.52 | 28.24 | 27.88 | 27.67
x1 = 0.1147 | – | – | – | – | 28.39 | 28.17 | 27.84 | 27.63
x1 = 0.1172 | 1000.27 | 996.95 | 993.63 | 990.42 | – | – | – | –
x1 = 0.131 | 999.59 | 996.11 | 992.63 | 989.31 | – | – | – | –
x1 = 0.134 | – | – | – | – | 28.24 | 28.1 | 27.82 | 27.58
x1 = 0.1428 | – | – | – | – | 28.19 | 28.07 | 27.81 | 27.56
x1 = 0.1443 | 998.82 | 995.31 | 991.8 | 988.32 | – | – | – | –
x1 = 0.1767 | 997.16 | 993.56 | 989.96 | 986.45 | 28.21 | 28.01 | 27.79 | 27.47

CCCCCC(=O)O [hexanoic acid] + O
Settings | mass density, 293.15 K [kg/m3] | mass density, 298.15 K [kg/m3] | mass density, 303.15 K [kg/m3] | mass density, 308.15 K [kg/m3] | surface tension liquid-gas, 293.15 K [mN/m] | surface tension liquid-gas, 298.15 K [mN/m] | surface tension liquid-gas, 303.15 K [mN/m] | surface tension liquid-gas, 308.15 K [mN/m]
x1 = 8e-05 | – | – | – | – | 63.26 | 62.69 | 62.67 | 62.16
x1 = 0.00015 | 998.24 | 997.08 | 995.67 | 994.07 | – | – | – | –
x1 = 0.00016 | – | – | – | – | 56.6 | 56.02 | 56.09 | 56.02
x1 = 0.00023 | – | – | – | – | 52.29 | 51.8 | 51.81 | 51.94
x1 = 0.00032 | – | – | – | – | 48.25 | 47.98 | 47.93 | 48.06
x1 = 0.00037 | – | – | – | – | 46.55 | 46.17 | 45.98 | 46.29
x1 = 0.00043 | 998.28 | 997.12 | 995.68 | 994.07 | – | – | – | –
x1 = 0.00046 | – | – | – | – | 44.03 | 43.54 | 43.22 | 43.67
x1 = 0.00051 | – | – | – | – | 42.83 | 42.62 | 42.44 | 42.6
x1 = 0.0006 | 998.31 | 997.14 | 995.72 | 994.09 | – | – | – | –
x1 = 0.00062 | – | – | – | – | 40.57 | 40.6 | 40.57 | 40.45
x1 = 0.00069 | – | – | – | – | 39.19 | 39.02 | 38.98 | 38.89
x1 = 0.00077 | – | – | – | – | 37.72 | 37.36 | 37.36 | 37.2
x1 = 0.00084 | – | – | – | – | 36.64 | 36.28 | 36.21 | 36.07
x1 = 0.00091 | – | – | – | – | 35.66 | 35.23 | 35.04 | 34.96
x1 = 0.00106 | 998.36 | 997.18 | 995.77 | 994.1 | – | – | – | –
x1 = 0.0011 | – | – | – | – | 33.79 | 33.17 | 32.82 | 32.46
x1 = 0.00115 | – | – | – | – | 33.55 | 32.94 | 32.57 | 32.11
x1 = 0.00143 | 998.42 | 997.22 | 995.77 | 994.12 | – | – | – | –
x1 = 0.00148 | 998.43 | 997.23 | 995.79 | 994.12 | – | – | – | –
x1 = 0.0018 | 998.47 | 997.25 | 995.81 | 994.13 | – | – | – | –
x1 = 0.00195 | 998.49 | 997.28 | 995.82 | 994.15 | – | – | – | –
x1 = 0.00205 | 998.5 | 997.29 | 995.83 | 994.14 | – | – | – | –
x1 = 0.00222 | 998.52 | 997.29 | 995.83 | 994.16 | – | – | – | –
x1 = 0.00228 | 998.54 | 997.31 | 995.84 | 994.16 | – | – | – | –
x1 = 0.0025 | 998.56 | 997.33 | 995.86 | 994.18 | – | – | – | –
x1 = 0.00271 | 998.58 | 997.35 | 995.88 | 994.19 | – | – | – | –
x1 = 0.00289 | 998.62 | 997.37 | 995.89 | 994.19 | – | – | – | –
x1 = 0.00305 | 998.63 | 997.4 | 995.91 | 994.21 | – | – | – | –
x1 = 0.0035 | 998.69 | 997.43 | 995.94 | 994.23 | – | – | – | –

CCCCC(=O)O [pentanoic acid] + O
Settings | mass density, 293.15 K [kg/m3] | mass density, 298.15 K [kg/m3] | mass density, 303.15 K [kg/m3] | mass density, 308.15 K [kg/m3] | surface tension liquid-gas, 293.15 K [mN/m] | surface tension liquid-gas, 298.15 K [mN/m] | surface tension liquid-gas, 303.15 K [mN/m] | surface tension liquid-gas, 308.15 K [mN/m]
x1 = 0.00015 | 998.24 | 997.08 | 995.67 | 994.07 | – | – | – | –
x1 = 0.00016 | – | – | – | – | 63.92 | 64.63 | 63.6 | 63.01
x1 = 0.00043 | 998.28 | 997.12 | 995.68 | 994.07 | – | – | – | –
x1 = 0.00048 | – | – | – | – | 57.45 | 57.4 | 56.82 | 56.37
x1 = 0.00056 | – | – | – | – | 56.19 | 56.09 | 55.49 | 55.07
x1 = 0.0006 | 998.31 | 997.14 | 995.72 | 994.09 | – | – | – | –
x1 = 0.00083 | – | – | – | – | 52.45 | 52.12 | 51.63 | 51.27
x1 = 0.00099 | – | – | – | – | 50.54 | 50.05 | 49.71 | 49.38
x1 = 0.00106 | 998.36 | 997.18 | 995.77 | 994.1 | – | – | – | –
x1 = 0.00121 | – | – | – | – | 48.25 | 47.66 | 47.43 | 47.13
x1 = 0.00143 | 998.42 | 997.22 | 995.77 | 994.12 | – | – | – | –
x1 = 0.00148 | 998.43 | 997.23 | 995.79 | 994.12 | – | – | – | –
x1 = 0.0015 | – | – | – | – | 45.82 | 45.32 | 44.93 | 44.64
x1 = 0.00173 | – | – | – | – | 44.26 | 43.88 | 43.28 | 43
x1 = 0.0018 | 998.47 | 997.25 | 995.81 | 994.13 | – | – | – | –
x1 = 0.00195 | 998.49 | 997.28 | 995.82 | 994.15 | – | – | – | –
x1 = 0.00196 | – | – | – | – | 42.94 | 42.57 | 41.86 | 41.59
x1 = 0.00205 | 998.5 | 997.29 | 995.83 | 994.14 | – | – | – | –
x1 = 0.00219 | – | – | – | – | 41.78 | 41.26 | 40.63 | 40.36
x1 = 0.00222 | 998.52 | 997.29 | 995.83 | 994.16 | – | – | – | –
x1 = 0.00228 | 998.54 | 997.31 | 995.84 | 994.16 | – | – | – | –
x1 = 0.0025 | 998.56 | 997.33 | 995.86 | 994.18 | – | – | – | –
x1 = 0.00259 | – | – | – | – | 39.97 | 39.16 | 38.8 | 38.54
x1 = 0.00271 | 998.58 | 997.35 | 995.88 | 994.19 | – | – | – | –
x1 = 0.00283 | – | – | – | – | 38.97 | 38.18 | 37.81 | 37.57
x1 = 0.00289 | 998.62 | 997.37 | 995.89 | 994.19 | – | – | – | –
x1 = 0.00299 | – | – | – | – | 38.32 | 37.6 | 37.18 | 36.94
x1 = 0.00305 | 998.63 | 997.4 | 995.91 | 994.21 | – | – | – | –
x1 = 0.00326 | – | – | – | – | 37.25 | 36.51 | 36.1 | 35.9
x1 = 0.00349 | – | – | – | – | 36.38 | 35.61 | 35.15 | 34.97
x1 = 0.0035 | 998.69 | 997.43 | 995.94 | 994.23 | – | – | – | –
